Experiments:
[1] = Pharmacokinetic parameters in SD rats; type: in vivo, Sprague-Dawley rats; details: single oral 3 mg/kg in 30% PEG400, plasma; for CL/F / AUC(0-t): Sprague-Dawley, rat; for AUC(0-t): read-out: AUC0-t (mean ± SD)
Description: The pharmacokinetic study of each test compound was conducted in 4 Sprague-Dawley rats following a single oral administration of 3 mg/kg of the compound. The dose was prepared by dissolving test article in appropriate volume of 30% PEG400. The plasma samples were collected from the orbital plexus at 0.083, 0.25, 0.50, 1.0, 2.0, 4.0, 6.0, 8.0, 12 and 24 hours post dose, and the plasma concentrations were determined by a developed LC-MS/MS method.

CYP1A2 = biological target: T1, CYP1A2 (Homo sapiens, UniProt P05177); test: P450-Glo CYP screening kit, CYP1A2 inhibition; type: in vitro ADME; details: luminescence, read-out: IC50 1A2
T1 construct: purchased Promega
T1 sequence (P05177 1-516): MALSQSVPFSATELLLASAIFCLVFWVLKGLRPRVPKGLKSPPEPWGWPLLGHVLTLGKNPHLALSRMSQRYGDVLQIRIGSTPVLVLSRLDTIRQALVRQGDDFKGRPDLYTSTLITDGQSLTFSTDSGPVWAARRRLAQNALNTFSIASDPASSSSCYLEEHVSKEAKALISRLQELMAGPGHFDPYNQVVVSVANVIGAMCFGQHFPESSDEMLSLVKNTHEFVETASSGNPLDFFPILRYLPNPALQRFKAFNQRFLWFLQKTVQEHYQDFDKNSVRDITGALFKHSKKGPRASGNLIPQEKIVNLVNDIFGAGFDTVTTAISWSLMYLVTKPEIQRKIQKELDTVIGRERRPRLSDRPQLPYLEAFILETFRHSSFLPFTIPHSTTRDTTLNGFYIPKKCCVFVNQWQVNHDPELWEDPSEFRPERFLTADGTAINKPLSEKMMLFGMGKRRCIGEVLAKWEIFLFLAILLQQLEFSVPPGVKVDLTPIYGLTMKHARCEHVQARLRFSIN
Description: (§1) P450-Glo™ CYP Screening Kits for CYP1A2, CYP3A4 and CYP2C19 were purchased from Promega. […] Luminescence was quantified using a Victor 3 spectrophotometer (PerkinElmer).

[2] = Metabolism in SD rats: distribution of metabolites in urine; type: in vivo; details: male SD rats, 50 mg/kg oral, five consecutive days, HPLC
Description: Each test compound was dissolved in 30% PEG400 and administered orally to male SD rats by gavages at the dose level of 50 mg/kg (when using co-crystals, the weight calculation was based on free drug) for five consecutive days. Control rats were given 30% PEG400 only. All rats were housed in metabolic cages individually. Food and water were supplied ad libitum. Clinical observations (with attention to diarrhea symptoms) were performed twice daily. Food and water consumption were determined daily. Urine was collected pre-determined intervals: pre-dose, 0-4 hours, 4-8 hours, and 8-24 hours post-dose. Metabolites were analyzed and identified by LC/MS. The structures of the metabolites were confirmed by re-synthesis or isolation from the urine by preparative HPLC and NMR analysis. On day 6, all animals were sacrificed and gross necropsy was performed. The urine from two rats for each test compound was collected and pooled. The samples were diluted (1 mL urine in 4 mL of methanol) and analyzed by LC-MS: Waters 2695 Separations Module equipped with a Waters 2996 Photodiode Array Detector and a Waters Micromass ZQ Detector; Waters XTerra C18 3.5 μm, 20 mm×2.1 mm column, 1.0 mL/min, detection at 190-400 nm; 1.7 min gradient 10-50% A, followed by 1.8 min gradient 50-95% A, hold 1 min at 95% A; solvent A: 100% acetonitrile+0.045% formic acid; solvent B: Milli-Q water+0.1% formic acid. The urine samples were analyzed from 0-4 hours, 4-8 hours, 8-24 hours and 0-24 hours after administration. The ratio of metabolites was highly consistent within each time for each rat. The metabolites were identified by mass then re-synthesized to confirm their identity and the relative distribution was assayed using HPLC. […] See also FIGS. 1, 2A-2C, 3A-3D, and 4A-4C.

beagle dogs = test: Urinary glucose excretion in beagle dogs; type: in vivo; details: 0.03 mg/kg oral, glucose 2 g/kg 1 h post dose; for Urinary Glucose Excretion in Dogs, 0-8 h (mean ± SD): 0-8 h (Table 4); for Urinary Glucose Excretion in Dogs, 0-24 h (mean ± SD): 0-24 h (Table 4)
Description: Each test compound was dissolved in 10% PEG400 and administered orally to overnight-fasted beagle dogs by gavage at the dose level of 0.03 mg/kg. Control dogs were given 10% PEG400 only. One hour post dosing, glucose solution (2 g/kg, 5 mL/kg) was administered by oral gavage. Urine was collected within metabolic cages from 0 to 8 hours, and 8 to 24 hours post-dosing for urine volume and glucose measurement. Food was removed 16 hours before dosing and then provided 3 hours after dosing. Water was supplied ad libitum. The concentration of urinary glucose was determined at 8 hours and 24 hours post-dose using a biochemistry analyzer.

CYP2C19 = biological target: T2, CYP2C19 (Homo sapiens, UniProt P33261); test: P450-Glo CYP screening kit, CYP2C19 inhibition; type: in vitro ADME; details: luminescence, read-out: IC50 2C19
T2 construct: purchased Promega
T2 sequence (P33261 whole entry): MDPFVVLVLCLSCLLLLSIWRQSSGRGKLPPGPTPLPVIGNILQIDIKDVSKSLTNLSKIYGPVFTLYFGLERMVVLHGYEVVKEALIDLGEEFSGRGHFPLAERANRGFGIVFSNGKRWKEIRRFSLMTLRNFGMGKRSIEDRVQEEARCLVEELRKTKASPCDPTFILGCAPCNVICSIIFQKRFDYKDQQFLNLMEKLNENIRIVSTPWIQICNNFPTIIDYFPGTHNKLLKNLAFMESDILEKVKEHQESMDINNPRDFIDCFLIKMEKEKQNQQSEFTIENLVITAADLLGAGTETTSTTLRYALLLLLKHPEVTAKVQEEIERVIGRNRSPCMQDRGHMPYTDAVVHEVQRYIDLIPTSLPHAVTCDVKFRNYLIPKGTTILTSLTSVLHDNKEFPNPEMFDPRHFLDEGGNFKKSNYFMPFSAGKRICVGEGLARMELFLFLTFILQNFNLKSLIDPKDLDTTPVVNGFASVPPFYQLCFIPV
Description: as §1

CYP3A4 = biological target: T3, CYP3A4 (Homo sapiens, UniProt P08684); test: P450-Glo CYP screening kit, CYP3A4 inhibition; type: in vitro ADME; details: luminescence, read-out: IC50 3A4
T3 construct: purchased Promega
T3 sequence (P08684 whole entry): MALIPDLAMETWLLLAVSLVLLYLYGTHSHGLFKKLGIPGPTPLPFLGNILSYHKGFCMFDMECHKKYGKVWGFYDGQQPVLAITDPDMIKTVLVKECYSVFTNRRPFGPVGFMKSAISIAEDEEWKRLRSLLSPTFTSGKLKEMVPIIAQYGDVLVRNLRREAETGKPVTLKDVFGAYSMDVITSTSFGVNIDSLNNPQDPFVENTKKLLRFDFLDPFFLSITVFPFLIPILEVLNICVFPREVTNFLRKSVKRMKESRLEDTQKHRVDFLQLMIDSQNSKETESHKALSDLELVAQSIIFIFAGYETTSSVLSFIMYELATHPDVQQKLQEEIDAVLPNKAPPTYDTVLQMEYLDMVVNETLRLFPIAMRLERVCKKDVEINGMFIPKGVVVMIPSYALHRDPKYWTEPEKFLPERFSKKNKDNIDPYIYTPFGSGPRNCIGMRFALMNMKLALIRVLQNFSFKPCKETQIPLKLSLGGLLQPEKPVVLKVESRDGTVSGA
Description: as §1

Row | CL/F [1] [L/h/kg] | AUC(0-t) [1] [µg·h/mL] | Cmax (mean ± SD) [1] [µg/mL] | t1/2 (mean ± SD) [1] [h] | tmax (mean ± SD) [1] [h] | IC50 (CYP1A2) [µM] | Distribution of Metabolites in Urine (% of total), Peak 1 (Parent) [2] [%] | IC50 (CYP2C19) [µM] | IC50 (CYP3A4) [µM] | SMILES | Urinary Glucose Excretion in Dogs, 0-8 h (mean ± SD) (beagle dogs) [mg] | Urinary Glucose Excretion in Dogs, 0-24 h (mean ± SD) (beagle dogs) [mg] | Urinary Glucose Excretion in Dogs, 8-24 h (mean ± SD) (beagle dogs; 8-24 h (Table 4)) [mg]
1 | 0.133 | 21.2 ± 1.89 | 2.285 ± 0.697 | 6.05 ± 0.85 | 1.38 ± 0.75 | 500 to 1000 | 45 | 168 | 500 to 1000 | [2H]C([2H])([2H])C([2H])([2H])Oc1ccc(Cc2cc([C@@H]3O[C@H](CO)[C@@H](O)[C@H](O)[C@H]3O)ccc2Cl)cc1 [24c, (2S,3R,4R,5S,6R)-2-(4-chloro-3-(4-(ethoxy-d5)benzyl)phenyl)-6-(hydroxymethyl)tetrahydro-2H-pyran-3,4,5-triol] | 3472 ± 622 | 11964 ± 2190 | –
2 | 0.27 | 11.3 ± 2.6 | 1.603 ± 0.425 | 4.52 ± 0.98 | 0.88 ± 0.75 | 426 | 40 | 61.1 | ~400 | CCOc1ccc(Cc2cc([C@@H]3O[C@H](CO)[C@@H](O)[C@H](O)[C@H]3O)ccc2Cl)cc1 [Ref A, (2S,3R,4R,5S,6R)-2-(4-chloro-3-(4-ethoxybenzyl)phenyl)-6-(hydroxymethyl)tetrahydro-2H-pyran-3,4,5-triol, reference compound] | – | – | –
3 | 0.192 | 15.3 ± 2.38 | 1.83 ± 0.365 | 5.14 ± 1.28 | 1.69 ± 0.59 | ~500 | 55 | 50 to 100 | ~1000 | [2H]C([2H])(c1ccc(OCC)cc1)c1cc([C@@H]2O[C@H](CO)[C@@H](O)[C@H](O)[C@H]2O)ccc1Cl [compound 9, (2S,3R,4R,5S,6R)-2-(4-chloro-3-((4-ethoxyphenyl)methyl-d2)phenyl)-6-(hydroxymethyl)tetrahydro-2H-pyran-3,4,5-triol] | 3396 ± 442 | 10228 ± 895 | 6832 ± 2555
